Results from patent US10292985B2, “TGF beta receptor antagonists” (BRISTOL-MYERS SQUIBB COMPANY, priority 2015, dated 2019).

target: HIS-TGFβR1 T204D (Homo sapiens (Human), UniProt P36897, T204D); assay: HTRF probe-displacement assay, TGFβR1; type: binding; conditions: GST tagged wild type protein used instead of HIS-tagged protein (starred values)
Procedure: Em: 520 nm/495 nm). […] Compounds were dissolved at 10 mM in dimethylsulfoxide (DMSO) and evaluated at eleven concentrations. IC50 values were derived by non-linear regression analysis.

Sequence of HIS-TGFβR1 T204D (P36897 34-503 T204D): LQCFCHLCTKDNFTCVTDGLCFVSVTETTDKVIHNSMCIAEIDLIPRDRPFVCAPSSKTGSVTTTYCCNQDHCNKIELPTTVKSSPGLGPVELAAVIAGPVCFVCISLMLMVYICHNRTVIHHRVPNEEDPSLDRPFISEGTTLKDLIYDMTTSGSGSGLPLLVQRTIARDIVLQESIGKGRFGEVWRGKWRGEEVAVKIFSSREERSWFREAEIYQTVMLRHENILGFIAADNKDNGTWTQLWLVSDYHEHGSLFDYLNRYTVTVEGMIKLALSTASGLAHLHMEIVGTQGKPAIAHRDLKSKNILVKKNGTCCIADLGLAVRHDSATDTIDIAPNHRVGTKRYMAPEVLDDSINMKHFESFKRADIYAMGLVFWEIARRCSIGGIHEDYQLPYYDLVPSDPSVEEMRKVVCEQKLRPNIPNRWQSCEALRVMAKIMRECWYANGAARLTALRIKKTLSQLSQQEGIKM

First: Cc1cccc(-c2nc(Nc3ccnc4ccc(C(F)(F)F)cc34)c3cccn3n2)n1 [Example 16, N-[2-(6-methylpyridin-2-yl)pyrrolo[2,1-f][1,2,4]triazin-4-yl]-6-(trifluoromethyl)quinolin-4-amine]
Second: Cc1cccc(-c2nc(Nc3ccnc4ccc(Br)cc34)c3cccn3n2)n1 [Example 12, 6-bromo-N-[2-(6-methylpyridin-2-yl)pyrrolo[2,1-f][1,2,4]triazin-4-yl]quinolin-4-amine]
The IC50 of the first is 3.4-fold higher: 940 nM for the first, 280 nM for the second. The second is the more potent here.

Compared with Cc1ccc(F)c(-c2nc(-n3ccc4cnccc43)c3cccn3n2)n1 [Example 4, 3-fluoro-6-methyl-2-(4-{1H-pyrrolo[3,2-c]pyridin-1-yl}pyrrolo[2,1-f][1,2,4]triazin-2-yl)pyridine], CS(=O)(=O)Nc1cccc(-c2nc(-n3ccc4cnccc43)c3cccn3n2)n1 [Example 25, N-[6-(4-{1H-pyrrolo[3,2-c]pyridin-1-yl}pyrrolo[2,1-f][1,2,4]triazin-2-yl)pyridin-2-yl]methanesulfonamide] is 1.8-fold higher in IC50: 18 nM for the first, 33 nM for the second. The first is the more potent here.

same assay, conditions: HIS-TGFβR1 T204D, 1 nM; 1 hour at room temperature

First: COc1ccc2c(Nc3nc(-c4cccc(C(F)(F)F)n4)nn4cccc34)ccnc2c1 [Example 20, 7-methoxy-N-{2-[6-(trifluoromethyl)pyridin-2-yl]pyrrolo[2,1-f][1,2,4]triazin-4-yl}quinolin-4-amine]
Second: COc1ccc2c(Nc3nc(-c4cccc(C)n4)nn4cccc34)ccnc2c1 [Example 13, 7-methoxy-N-[2-(6-methylpyridin-2-yl)pyrrolo[2,1-f][1,2,4]triazin-4-yl]quinolin-4-amine]
The IC50 of the first is 3.8-fold higher: 4.2 nM for the first, 1.1 nM for the second.

Compared with COc1cccc(-c2nc(-n3ccc4cnccc43)c3cccn3n2)n1 [Example 32, 2-methoxy-6-(4-{1H-pyrrolo[3,2-c]pyridin-1-yl}pyrrolo[2,1-f][1,2,4]triazin-2-yl)pyridine], Cc1cccc(-c2nc(-n3ccc4cnccc43)c3cccn3n2)n1 [Example 5, 2-methyl-6-(4-{1H-pyrrolo[3,2-c]pyridin-1-yl}pyrrolo[2,1-f][1,2,4]triazin-2-yl)pyridine] is 6.5-fold lower in IC50: 6.2 nM for the first, 0.96 nM for the second.

CCc1cccc(-c2nc(-n3ccc4cnccc43)c3cccn3n2)n1 [Example 26, 2-ethyl-6-(4-{1H-pyrrolo[3,2-c]pyridin-1-yl}pyrrolo[2,1-f][1,2,4]triazin-2-yl)pyridine] and Fc1cccc(-c2nc(-n3ccc4cnccc43)c3cccn3n2)n1 [Example 6, 2-fluoro-6-(4-{1H-pyrrolo[3,2-c]pyridin-1-yl}pyrrolo[2,1-f][1,2,4]triazin-2-yl)pyridine] are within 1.5-fold of each other in IC50: 1.2 nM for the first, 1.4 nM for the second.

Going from c1ccc(-c2nc(-n3cnc4cnccc43)c3cccn3n2)nc1 [Example 9, 2-(4-{1H-imidazo[4,5-c]pyridin-1-yl}pyrrolo[2,1-f][1,2,4]triazin-2-yl)pyridine] to c1ccc(-c2nc(-n3ccc4cnccc43)c3cccn3n2)nc1 [Example 8, 2-(4-{1H-pyrrolo[3,2-c]pyridin-1-yl}pyrrolo[2,1-f][1,2,4]triazin-2-yl)pyridine], the IC50 falls from 5.1 nM to 1.1 nM (4.6-fold). The second is the more potent here.

First: c1ccc(-c2nc(-n3ccc4ccncc43)c3cccn3n2)nc1 [Example 10, 2-(4-{1H-pyrrolo[2,3-c]pyridin-1-yl}pyrrolo[2,1-f][1,2,4]triazin-2-yl)pyridine]
Second: Cc1ccc(-c2nc(-n3ccc4cnccc43)c3cccn3n2)nc1 [Example 34, 5-methyl-2-(4-{1H-pyrrolo[3,2-c]pyridin-1-yl}pyrrolo[2,1-f][1,2,4]triazin-2-yl)pyridine]
The IC50 of the first is 26-fold higher: 310 nM for the first, 12 nM for the second.

Cc1cccc(-c2nc(Nc3ccnc4cccnc34)c3cccn3n2)n1 [Example 19, N-[2-(6-methylpyridin-2-yl)pyrrolo[2,1-f][1,2,4]triazin-4-yl]-1,5-naphthyridin-4-amine] and FC(F)c1cccc(-c2nc(Nc3ccnc4cccnc34)c3cccn3n2)n1 [Example 22, N-{2-[6-(difluoromethyl)pyridin-2-yl]pyrrolo[2,1-f][1,2,4]triazin-4-yl}-1,5-napthyridin-4-amine] are within 1.5-fold of each other in IC50: 5.1 nM for the first, 5.8 nM for the second.

Cc1cccc(-c2nc(Nc3ccnc4ccc(F)cc34)c3cccn3n2)n1 [Example 14, 6-fluoro-N-[2-(6-methylpyridin-2-yl)pyrrolo[2,1-f][1,2,4]triazin-4-yl]quinolin-4-amine] and Cc1cccc(-c2nc(Nc3ccnc4ccc(Cl)cc34)c3cccn3n2)n1 [Example 15, 6-chloro-N-[2-(6-methylpyridin-2-yl)pyrrolo[2,1-f][1,2,4]triazin-4-yl]quinolin-4-amine] are within 1.5-fold of each other in IC50: 6.6 nM for the first, 4.7 nM for the second.

FC(F)(F)c1cccc(-c2nc(-n3ccc4cnccc43)c3cccn3n2)n1 [Example 28, 2-(4-{1H-pyrrolo[3,2-c]pyridin-1-yl}pyrrolo[2,1-f][1,2,4]triazin-2-yl)-6-(trifluoromethyl)pyridine] and Clc1cccc(-c2nc(-n3ccc4cnccc43)c3cccn3n2)n1 [Example 31, 2-chloro-6-(4-{1H-pyrrolo[3,2-c]pyridin-1}-ylpyrrolo[2,1-f][1,2,4]triazin-2-yl)pyridine] are within 1.5-fold of each other in IC50: 3.8 nM for the first, 4.7 nM for the second.

Going from COc1cccc(-c2nc(-n3ncc4cnccc43)c3cccn3n2)n1 [Example 30, 2-methoxy-6-(4-{1H-pyrazolo[4,3-c]pyridin-1-yl}pyrrolo[2,1-f][1,2,4]triazin-2-yl)pyridine] to COc1cccc(-c2nc(-n3ccc4cnccc43)c3c(Cl)ccn3n2)n1 [Example 24, 2-(5-chloro-4-{1H-pyrrolo[3,2-c]pyridin-1-yl}pyrrolo[2,1-f][1,2,4]triazin-2-yl)-6-methoxypyridine], the IC50 falls from 67 nM to 10 nM (6.7-fold). The second is the more potent here.

Cc1cccc(-c2nc(Nc3ccnc4ccncc34)c3cccn3n2)n1 [Example 18, N-[2-(6-methylpyridin-2-yl)pyrrolo[2,1-f][1,2,4]triazin-4-yl]-1,6-naphthyridin-4-amine] and COc1ccc2nccc(Nc3nc(-c4cccc(C)n4)nn4cccc34)c2c1 [Example 11, 6-methoxy-N-[2-(6-methylpyridin-2-yl)pyrrolo[2,1-f][1,2,4]triazin-4-yl]quinolin-4-amine] are within 1.5-fold of each other in IC50: 4.4 nM for the first, 6.4 nM for the second.

First: Cc1nc(-c2nc(-n3ccc4cnccc43)c3cccn3n2)ccc1F [Example 23, 3-fluoro-2-methyl-6-(4-{1H-pyrrolo[3,2-c]pyridin-1-yl}pyrrolo[2,1-f][1,2,4]triazin-2-yl)pyridine]
Second: FC(F)c1cccc(-c2nc(-n3ccc4cnccc43)c3cccn3n2)n1 [Example 29, 2-(difluoromethyl)-6-(4-{1H-pyrrolo[3,2-c]pyridin-1-yl}pyrrolo[2,1-f][1,2,4]triazin-2-yl)pyridine]
The IC50 of the first is 2.2-fold lower: 1.3 nM for the first, 2.9 nM for the second. The first is the more potent here.

Going from Cn1cnc2ccc(Nc3nc(-c4ccccn4)nn4cccc34)cc21 [Example 7, 1-methyl-N-[2-(pyridin-2-yl)pyrrolo[2,1-f][1,2,4]triazin-4-yl]-1H-1,3-benzodiazol-6-amine] to COc1cccc(-c2nc(Nc3ccc4ncccc4c3)c3cccn3n2)n1 [Example 3, N-(2-(6-methoxypyridin-2-yl)pyrrolo[2,1-f][1,2,4]triazin-4-yl)quinolin-6-amine], the IC50 rises from 240 nM to 13000 nM (54-fold). The first is the more potent here.

Cc1cccc(-c2nc(Nc3ccc4[nH]ncc4c3)c3cccn3n2)n1 [Example 36, N-[2-(6-methylpyridin-2-yl)pyrrolo[2,1-f][1,2,4]triazin-4-yl]-1H-indazol-5-amine] and Cc1cccc(-c2nc(Nc3ccnc4cc(C(F)(F)F)ccc34)c3cccn3n2)n1 [Example 17, N-[2-(6-methylpyridin-2-yl)pyrrolo[2,1-f][1,2,4]triazin-4-yl]-7-(trifluoromethyl)quinolin-4-amine] are within 1.5-fold of each other in IC50: 1.5 nM for the first, 1.4 nM for the second.

First: c1cc(-c2nc(-n3ccc4cnccc43)c3cccn3n2)nc(C2CC2)c1 [Example 27, 2-cyclopropyl-6-(4-{1H-pyrrolo[3,2-c]pyridin-1-yl}pyrrolo[2,1-f][1,2,4]triazin-2-yl)pyridine]
Second: CSc1nccc(-c2nc(-n3ccc4cnccc43)c3cccn3n2)n1 [Example 35, 2-(methylsulfanyl)-4-(4-{1H-pyrrolo[3,2-c]pyridin-1-yl}pyrrolo[2,1-f][1,2,4]triazin-2-yl)pyrimidine]
The IC50 of the first is 1.7-fold lower: 1.3 nM for the first, 2.2 nM for the second. The first is the more potent here.

First: COc1ccc2c(Nc3nc(-c4cccc(C(F)F)n4)nn4cccc34)ccnc2c1 [Example 21, N-{2-[6-(difluoromethyl)pyridin-2-yl]pyrrolo[2,1-f][1,2,4]triazin-4-yl}-7-methoxyquinolin-4-amine]
Second: FC(F)(F)c1cccc(-c2nc(Nc3ccnc4cccnc34)c3cccn3n2)n1 [Example 2, N-{2-[6-(trifluoromethyl)pyridin-2-yl]pyrrolo[2,1-f][1,2,4]triazin-4-yl}-1,5-naphthyridin-4-amine]
The IC50 of the first is 11-fold lower: 1.8 nM for the first, 20 nM for the second.
